Assay results from publication PMC6021032, “Antimycobacterial activity of nitrogen heterocycles derivatives: 7-(pyridine-4-yl)-indolizine derivatives. Part VII^8–12” (Journal of Enzyme Inhibition and Medicinal Chemistry, 2017).

Columns and labels:
Mycobacterium abscessus = test: MIC, IC50, IC90 against nontuberculous mycobacteria (OD590); assay type: cell-based; details: M. abscessus
[1] = test system: THP-1 cell line infected with Mtb; test: Intracellular activity assay, luminescence; assay type: cell-based, Mycobacterium tuberculosis; details: Mtb-infected THP-1 cells, 72 h
Protocol: Since the overall efficacy of any anti TB drug will be improved by its ability to traffic into the macrophage phagosome containing replicating bacteria, we evaluated the intracellular activity of compounds[24]. This was measured by using THP-1 cell line infected with Mtb. Infected cells were exposed to compounds for 72 h and viable bacterial counts were measured using luminescence as a measure of intracellular growth.
Assay (Promega) which uses ATP as an indicator of cell viability. Relative luminescent units (RLU) were measured using a Biotek Synergy 4 plate reader. The dose response curve was fitted using the Levenberg–Marquardt algorithm. The IC50 was defined as the compound […]
Intracellular Activity Assay
The activity of compounds against intracellular bacteria was determined by measuring viability in infected THP-1 cell after 3 days in the presence of test compounds. Compounds were prepared as 10-point three-fold serial dilutions in DMSO. The highest concentration of […]
THP-1 cells were cultured in complete RPMI and differentiated into macrophage-like cells using 80 nM PMA overnight at 37°C, 5% CO2. THP-1 cells were infected with a luminescent strain of H37Rv (which constitutively expresses luxABCDE) at a multiplicity of infection of 1 and incubated overnight at 37°C, 5% CO2. Infected cells were recovered using Accutase/EDTA solution, washed twice with PBS to remove extracellular bacteria and seeded into assay pates. Compound dilutions were added to a final DMSO concentration of 0.5%.
Assay plates were incubated for 72 h at 37°C, 5% CO2. Each run included isoniazid as a control. Relative luminescent units (RLU) were measured using a Biotek Synergy 2 plate reader. The dose response curve was fitted using the Levenberg–Marquardt algorithm. The […]
inhibition of growth respectively.
3. Cycle 3 – Absorption, distribution, metabolism, excretion and toxicity (ADMET)
3.1. Plasma Protein Binding Assay
Compounds were added to human plasma at a fixed concentration of 5 µM. The mixture was dialyzed in a RED device (Rapid Equilibrium Dialysis, Pierce) against PBS and incubated on an orbital shaker for 4 h at 37 °C. Aliquots from plasma and PBS sides were collected; an equal volume of PBS was added to the plasma sample, and an equal volume of plasma was added to the PBS sample. Three volumes of methanol (containing the internal binding standard propranolol) was added to precipitate the proteins and release the compound.
Each compound was tested in duplicate. Samples were centrifuged, the supernatant was […]

[2] = test system: Mycobacterium tuberculosis H37Rv; test: Primary screen (Cycle 1): MIC, IC50, IC90 under aerobic conditions; assay type: cell-based
M. tuberculosis H37Rv = test: Cycle 2 repeat of MIC, IC50, IC90 under aerobic conditions (lower starting concentrations); assay type: cell-based, Mycobacterium tuberculosis; details: revaluation
Mycobacterium avium = test: MIC against nontuberculous mycobacteria (Alamar blue); assay type: cell-based; details: M. avium
Mtb H37Rv = test: LORA parallel plates, oxygen-deprived bacteria incubated under aerobic conditions (normal oxygen); assay type: cell-based, Mycobacterium tuberculosis
[3] = test system: THP-1 human monocytic cell line; test: Cytotoxicity, THP-1 cell viability (CellTiter-Glo); details: read-out: Cytotoxicity IC50; THP-1 cells, 50% loss in viability, 3 days
in vitro = details: human
[4] = M. tuberculosis H37Rv, aerobic conditions, primary screen

| Compound | IC50 (Mycobacterium abscessus) [µM] | IC90 (Mycobacterium abscessus) [µM] | IC50 ([1]; read-out: IC50 intracell) [µM] | IC90 ([1]; read-out: IC90 intracell) [µM] | IC50 [2, 4] [µM] | IC90 [2, 4] [µM] | MIC [2, 4] [µM] | MIC ([2]; MIC value taken from the first MIC assay) [µM] | IC50 (M. tuberculosis H37Rv; aerobic) [µM] | IC90 (M. tuberculosis H37Rv; aerobic) [µM] | MIC (M. tuberculosis H37Rv; repeated at lower starting concentrations, read-out: MIC aerobic condition) [µM] | MIC (Mycobacterium avium) [µM] | IC50 (Mtb H37Rv) [µM] | IC90 (Mtb H37Rv) [µM] | MIC (Mtb H37Rv; oxygen-deprived bacteria, aerobic 5 d) [µM] | IC50 [3] [µM] | recovery at 4 h, 5 µM (in vitro) [%] |
| --- | --- | --- | --- | --- | --- | --- | --- | --- | --- | --- | --- | --- | --- | --- | --- | --- | --- |
| 4-[3-(4-Chlorophenyl)-1-(ethoxycarbonyl)indolizine-7-yl)-1-(2-(4-methoxyphenyl)-2-oxoethyl)pyridine-1-ium bromide [Compound 6c] | 16 | 21 | 7 | 34 | 12 | 14 | 15 | 15 | 6.7 | 9.5 | 9.5 | 50 | 8.1 | 23 | 75 | 4.1 |  |
| CC(=O)CC(c1ccccc1)c1c(O)c2ccccc2oc1=O (centres unmarked) [Warfarin] |  |  |  |  |  |  |  |  |  |  |  |  |  |  |  |  | 96.7 |
